The source of these data is ChEMBL document CHEMBL5370579, “Structure-based lead optimization to improve potency and selectivity of a novel tetrahydroimidazo[1,2-a]pyridine-5-carboxylic acid series of heparanase-1 inhibitor” (Bioorg Med Chem, 2023).

Activity calls are given as the source filed them. The rule behind the calls is not given here.

Series [1] has as its target T1, Heparanase (Homo sapiens, UniProt Q9Y251).
T1 sequence (Q9Y251 whole entry): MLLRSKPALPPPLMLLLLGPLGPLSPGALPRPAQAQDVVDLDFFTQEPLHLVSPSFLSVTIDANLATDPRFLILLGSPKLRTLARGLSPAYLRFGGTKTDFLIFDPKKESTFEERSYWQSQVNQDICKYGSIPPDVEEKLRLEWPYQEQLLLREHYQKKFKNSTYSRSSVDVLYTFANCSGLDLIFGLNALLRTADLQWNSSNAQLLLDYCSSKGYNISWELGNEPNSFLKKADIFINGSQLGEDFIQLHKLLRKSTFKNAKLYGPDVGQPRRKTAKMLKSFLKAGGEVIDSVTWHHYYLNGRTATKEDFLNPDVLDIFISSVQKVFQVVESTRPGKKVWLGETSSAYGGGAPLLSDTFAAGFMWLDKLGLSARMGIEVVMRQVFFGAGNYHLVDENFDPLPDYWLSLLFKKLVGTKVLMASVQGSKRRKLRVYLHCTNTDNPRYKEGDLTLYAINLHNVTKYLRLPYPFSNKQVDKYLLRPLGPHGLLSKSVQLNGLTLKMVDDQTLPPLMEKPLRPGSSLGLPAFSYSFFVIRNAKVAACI
As to the kind of experiment: Inhibition of recombinant human HPSE1 using biotinylated heparan sulfate-Eu cryptate as substrate pre-incubated for 10 mins followed by substrate addition and measured after 60 mins by fluorescence based HTRF assay. For orientation: In TR-FRET formats the signal depends on donor and acceptor labels being close together.

Series [2] is described as follows: Inhibition of bovine liver beta-glucuronidase. The series is classed as tissue-based, Bos taurus.
In series [3] the target is T2, Beta-glucuronidase (Homo sapiens, UniProt P08236).
T2 sequence (P08236 whole entry): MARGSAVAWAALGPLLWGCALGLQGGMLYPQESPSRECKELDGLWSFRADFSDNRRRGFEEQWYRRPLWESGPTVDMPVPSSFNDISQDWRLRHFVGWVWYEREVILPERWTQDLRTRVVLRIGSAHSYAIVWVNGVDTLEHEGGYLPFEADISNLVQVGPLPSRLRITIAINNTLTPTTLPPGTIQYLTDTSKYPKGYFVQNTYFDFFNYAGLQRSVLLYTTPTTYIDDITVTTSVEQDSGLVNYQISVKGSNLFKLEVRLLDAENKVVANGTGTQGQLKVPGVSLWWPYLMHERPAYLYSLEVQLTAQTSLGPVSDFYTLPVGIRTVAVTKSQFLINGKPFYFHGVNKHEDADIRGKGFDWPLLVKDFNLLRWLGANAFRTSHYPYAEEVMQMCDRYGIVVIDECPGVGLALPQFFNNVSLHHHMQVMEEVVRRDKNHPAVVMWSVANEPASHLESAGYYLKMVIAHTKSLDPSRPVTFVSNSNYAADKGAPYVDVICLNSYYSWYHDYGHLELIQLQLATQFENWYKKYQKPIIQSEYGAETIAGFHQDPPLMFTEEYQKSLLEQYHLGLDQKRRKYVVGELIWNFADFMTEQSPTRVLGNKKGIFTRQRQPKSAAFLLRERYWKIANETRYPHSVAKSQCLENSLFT
As to the kind of experiment: Inhibition of recombinant human GUSbeta using 4-MUG as substrate pre-incubated for 10 mins followed by substrate addition and measured after 60 mins by fluorescence based assay.

A short description of series [4]: Inhibition of recombinant human GBA using 4-MUBDG as substrate pre-incubated for 10 mins followed by substrate addition and measured after 24 hrs by fluorescence based assay.
Series [5] is described as follows: Protein binding in C57BL/6J mouse serum at 1 ug/ml measured after 4 hrs by LC-MS/MS analysis. It counts as ADME, cell-free. To be noted: at 1 µg/mL, read-out: PB (converted).
The nature of series [6]: Total clearance in C57BL/6J mouse at 0.5 mg/kg, iv measured after 0.083 to 24 hrs by LC-MS/MS analysis. To be noted: in vivo, time 0.083-24 hrs. It counts as ADME, organism-based.
A short description of series [7]: Volume of distribution at steady state in C57BL/6J mouse at 0.5 mg/kg, iv measured after 0.083 to 24 hrs by LC-MS/MS analysis. It counts as ADME, organism-based. To be noted: in vivo, time 0.083-24 hrs, read-out: Vdss.
Series [8] in a line: Half life in C57BL/6J mouse at 0.5 mg/kg, iv measured after 0.083 to 24 hrs by LC-MS/MS analysis. To be noted: in vivo, time 0.083-24 hrs. It counts as ADME, organism-based.
The nature of series [9]: Drug excretion in C57BL/6J mouse urine at 0.5 mg/kg, iv measured after 24 hrs by LC-MS/MS analysis. As to conditions: read-out: Drug excretion. It counts as ADME, organism-based.
Series [10] deals with Mus musculus. As to the kind of experiment: In vivo inhibition of HPSE1 in C57BL/6J mouse at 3 to 100 mg/kg, sc measured after 1 to 4 hrs. As to conditions: dose 3-100 mg/kg, time 1-4 hrs. The series is classed as functional, organism-based.
Series [11] can be described thus: Drug concentration in C57BL/6J mouse plasma at 3 mg/kg, sc measured after 1 hrs by LC-MS/MS analysis. It counts as ADME, organism-based.
A short description of series [12]: Drug concentration in C57BL/6J mouse plasma at 30 mg/kg, sc measured after 1 hrs by LC-MS/MS analysis. It counts as ADME, organism-based.
Series [13] can be described thus: Drug concentration in C57BL/6J mouse plasma at 100 mg/kg, sc measured after 1 hrs by LC-MS/MS analysis. The series is classed as ADME, organism-based.
Series [14] in a line: Drug concentration in C57BL/6J mouse plasma at 3 mg/kg, sc measured after 4 hrs by LC-MS/MS analysis. It counts as ADME, organism-based.
Series [15] can be described thus: Drug concentration in C57BL/6J mouse plasma at 30 mg/kg, sc measured after 4 hrs by LC-MS/MS analysis. The series is classed as ADME, organism-based.
Series [16] can be described thus: Drug concentration in C57BL/6J mouse plasma at 100 mg/kg, sc measured after 4 hrs by LC-MS/MS analysis. The series is classed as ADME, organism-based.

For the molecule `O=C(O)[C@@H]1[C@@H](O)[C@H](O)[C@@H](O)c2nc(CCc3ccc(CCc4ccccc4)cc3)cn21`, the half-inhibitory concentration (IC50) in series [1] worked out at 2000 nM.
Turning to `CC(C)c1ccc(Oc2cccc(CCc3cn4c(n3)[C@H](O)[C@@H](O)[C@H](O)[C@H]4C(=O)O)c2)cc1`, in series [1], the IC50 was 1380 nM.
Same read-out and setting: the figure for `O=C(O)[C@@H]1[C@@H](O)[C@H](O)[C@@H](O)c2nc(-c3ccc(Oc4ccccc4)cc3)cn21` is 1100 nM.
Same read-out and setting: the figure for `COc1c(CCc2cn3c(n2)[C@H](O)[C@@H](O)[C@H](O)[C@H]3C(=O)O)cccc1Oc1ccccc1` is 1600 nM; for `O=C(O)[C@@H]1[C@@H](O)[C@H](O)[C@@H](O)c2nc(CCc3ccc(Oc4ccccc4)cc3)cn21` it is 586 nM.
With `Cc1ccc(S(=O)(=O)Nc2ccc(CCc3cn4c(n3)[C@H](O)[C@@H](O)[C@H](O)[C@H]4C(=O)O)cc2)cc1`, the IC50 in series [1] worked out at 1340 nM.
On the same count and under the same terms, the figure for `O=C(O)[C@@H]1[C@@H](O)[C@H](O)[C@@H](O)c2nc(C3CCN(C(=O)c4ccccc4Oc4ccccc4)CC3)cn21` is 1750 nM.
In the case of `O=C(O)[C@@H]1[C@@H](O)[C@H](O)[C@@H](O)c2nc(CCc3ccc(S(=O)(=O)c4ccccc4)cc3)cn21`, the half-maximal inhibitory concentration (IC50) in [1] was 748 nM.
As to `O=C(O)[C@@H]1[C@@H](O)[C@H](O)[C@@H](O)c2nccn21`, the affinity in series [2] corresponds to a Ki of 12 nM.
Take `CO[C@H]1[C@H](O)[C@@H](O)c2nc(CCc3cccc(Oc4ccccc4)c3)cn2[C@@H]1C(=O)O`: the half-inhibitory concentration (IC50) came to 442 nM in series [1], 839 nM in series [3] and 439 nM in [4]. The fraction unbound at 4 h, 1 ug/ml in series [5] is 0.045. The clearance in series [6] is 5.83 mL/min/kg. For the same molecule, the Vd in series [7] was determined as 0.666 L/kg. In [8], this molecule showed a half-life of 2.1 h. Moreover, in [9], the dose excreted at 24 h came out at 31.1%. Besides, in [10], the inhibition entry is “Active”. The concentration at 1 h in series [11] amounted to 1240 ng/mL; in [12], 9820 ng/mL; in [13] it was 24200 ng/mL. Further, the concentration at 4 h in [14] was found to be 191 ng/mL; in series [15], 1070 ng/mL; in [16], 1880 ng/mL.
Take `COc1cccc(OC)c1Oc1cccc(CCc2cn3c(n2)[C@H](O)[C@@H](O)[C@H](O)[C@H]3C(=O)O)c1OC`: in series [1], the IC50 came out at 9950 nM.
With `O=C(O)[C@@H]1[C@@H](O)[C@H](O)[C@@H](O)c2nc(CCc3cccc(Oc4ccccc4)c3)cn21`, the values for the IC50 in series [1], in series [3] and in series [4] were 467 nM, 8 nM and 53 nM, respectively. Moreover, the fraction unbound at 4 h, 1 ug/ml in series [5] was 0.036. The molecule also had a clearance in [6] of 8.18 mL/min/kg. Also, the Vd in series [7] was found to be 0.439 L/kg. The same molecule had a half-life in series [8] of 1.6 h. Besides, the dose excreted at 24 h in series [9] was determined as 44.2%.

One may read the IC50 as the point on the concentration scale where inhibition reaches its midpoint. As usually defined, the Ki is the equilibrium dissociation constant of an inhibitor or competing ligand from its target. A lower Ki goes with higher affinity. For orientation: clearance means a measure of how efficiently the substance is removed, as volume per time. A word on the half-life: it is how long it takes for the measured level to halve. A low value points to fast loss.
